In ChEMBL document CHEMBL1201862, “PubChem BioAssay data set” (2004):
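Method: 48-hour compound exposure of cells in 96-well plates, five concentrations, linear interpolation of endpoints. GI50 is the concentration that inhibits growth by half.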 The source made the active and inactive calls. Rule as the data show it: active = GI50 up to about 1.1 µM and inactive = higher.

Tests used:
Assay in all cases: NCI-60 cell line screen, 48 h
[1] = test system: UACC-62
[2] = test system: 786-0
[3] = test system: SN12C
[4] = test system: SK-OV-3
[5] = test system: U-251
[6] = test system: NCI-H460
[7] = test system: OVCAR-5
[8] = test system: UO-31
[9] = test system: HCT-15
[10] = test system: RXF 393
[11] = test system: OVCAR-3
[12] = test system: LOX IMVI
[13] = test system: UACC-257
[14] = test system: EKVX
[15] = test system: Hs-578T
[16] = test system: NCI/ADR-RES
[17] = test system: HL-60
[18] = test system: T47D
[19] = test system: DU-145
[20] = test system: IGROV-1
[21] = test system: OVCAR-4
[22] = test system: HCC 2998
[23] = test system: SF-295
[24] = test system: K562
[25] = test system: SW-620
[26] = test system: SF-539
[27] = test system: MDA-N
[28] = test system: MCF7
[29] = test system: ACHN
[30] = test system: SNB-19
[31] = test system: CCRF-CEM
[32] = test system: NCI-H226
[33] = test system: Malme-3M
[34] = test system: HCT-116
[35] = test system: NCI-H522
[36] = test system: A498
[37] = test system: SNB-75
[38] = test system: HT-29
[39] = test system: MOLT-4
[40] = test system: A549
[41] = test system: HOP-62
[42] = test system: SK-MEL-28
[43] = test system: HOP-92
[44] = test system: TK-10
[45] = test system: MDA-MB-435
[46] = test system: KM12
[47] = test system: OVCAR-8
[48] = test system: SR
[49] = test system: CAKI-1
[50] = test system: M14
[51] = test system: MDA-MB-231
[52] = test system: COLO 205
[53] = test system: NCI-H23
[54] = test system: SF-268
[55] = test system: PC-3
[56] = test system: SK-MEL-5
[57] = test system: RPMI-8226
[58] = test system: SK-MEL-2

COP(=O)(OC)/C(=C\c1cn(C(c2ccccc2)(c2ccccc2)c2ccccc2)cn1)NC(C)=O
GI50 [1]: > 100 µM (inactive)
GI50 [2]: > 100 µM (inactive)
GI50 [3]: > 100 µM (inactive)
GI50 [4]: > 100 µM (inactive)
GI50 [5]: > 100 µM (inactive)
GI50 [6]: > 100 µM (inactive)
GI50 [7]: > 100 µM (inactive)
GI50 [8]: > 100 µM (inactive)
GI50 [9]: > 100 µM
GI50 [10]: 30.6 µM (inactive)
GI50 [11]: > 100 µM (inactive)
GI50 [12]: > 100 µM (inactive)
GI50 [13]: 62.5 µM (inactive)
GI50 [14]: > 100 µM (inactive)
GI50 [15]: > 100 µM (inactive)
GI50 [16]: > 100 µM (inactive)
GI50 [17]: 53.8 µM (inactive)
GI50 [18]: > 100 µM (inactive)
GI50 [19]: > 100 µM (inactive)
GI50 [20]: > 100 µM (inactive)
GI50 [21]: > 100 µM (inactive)
GI50 [22]: > 100 µM (inactive)
GI50 [23]: > 100 µM (inactive)
GI50 [24]: 51.8 µM (inactive)
GI50 [25]: > 100 µM (inactive)
GI50 [26]: > 100 µM (inactive)
GI50 [27]: > 100 µM (inactive)
GI50 [28]: 88.3 µM (inactive)
GI50 [29]: > 100 µM (inactive)
GI50 [30]: > 100 µM (inactive)
GI50 [31]: 77.1 µM (inactive)
GI50 [32]: > 100 µM (inactive)
GI50 [33]: > 100 µM (inactive)
GI50 [34]: 58.5 µM (inactive)
GI50 [35]: > 100 µM (inactive)
GI50 [36]: > 100 µM (inactive)
GI50 [37]: > 100 µM (inactive)
GI50 [38]: 68.5 µM (inactive)
GI50 [39]: 34.4 µM (inactive)
GI50 [40]: 53.7 µM (inactive)
GI50 [41]: > 100 µM (inactive)
GI50 [42]: > 100 µM (inactive)
GI50 [43]: > 100 µM (inactive)
GI50 [44]: > 100 µM (inactive)
GI50 [45]: > 100 µM (inactive)
GI50 [46]: 52.4 µM (inactive)
GI50 [47]: > 100 µM (inactive)
GI50 [48]: 81.8 µM (inactive)
GI50 [49]: > 100 µM (inactive)
GI50 [50]: > 100 µM (inactive)
GI50 [51]: > 100 µM (inactive)
GI50 [52]: 84.3 µM (inactive)
GI50 [53]: > 100 µM (inactive)
GI50 [54]: > 100 µM (inactive)
GI50 [55]: > 100 µM (inactive)

C/C(C=O)=C/[C@@]1(C)O[C@@H](C)[C@@](C)(O)[C@@H]1O
GI50 [1]: 43.7 µM (inactive)
GI50 [2]: 17 µM (inactive)
GI50 [3]: 32.5 µM (inactive)
GI50 [4]: > 100 µM (inactive)
GI50 [5]: > 100 µM (inactive)
GI50 [6]: 22.2 µM (inactive)
GI50 [7]: > 100 µM (inactive)
GI50 [8]: 1.3 µM (inactive)
GI50 [9]: 22.2 µM
GI50 [10]: > 100 µM (inactive)
GI50 [11]: 49.1 µM (inactive)
GI50 [12]: 95.5 µM (inactive)
GI50 [56]: 64.6 µM (inactive)
GI50 [13]: 22.1 µM (inactive)
GI50 [14]: > 100 µM (inactive)
GI50 [15]: 49.5 µM (inactive)
GI50 [16]: 21.9 µM (inactive)
GI50 [17]: > 100 µM (inactive)
GI50 [18]: > 100 µM (inactive)
GI50 [19]: 78.9 µM (inactive)
GI50 [20]: > 100 µM (inactive)
GI50 [21]: > 100 µM (inactive)
GI50 [22]: 17.4 µM (inactive)
GI50 [23]: 41.1 µM (inactive)
GI50 [24]: 7.94 µM (inactive)
GI50 [25]: 87.3 µM (inactive)
GI50 [26]: 40.2 µM (inactive)
GI50 [27]: 44.3 µM (inactive)
GI50 [28]: 25.6 µM (inactive)
GI50 [57]: 30.9 µM (inactive)
GI50 [29]: 24.5 µM (inactive)
GI50 [30]: 61.1 µM (inactive)
GI50 [31]: 36.9 µM (inactive)
GI50 [32]: > 100 µM (inactive)
GI50 [33]: 52 µM (inactive)
GI50 [34]: 93.1 µM (inactive)
GI50 [35]: 19 µM (inactive)
GI50 [36]: 83.6 µM (inactive)
GI50 [38]: > 100 µM (inactive)
GI50 [39]: 5.62 µM (inactive)
GI50 [40]: > 100 µM (inactive)
GI50 [41]: 63.1 µM (inactive)
GI50 [42]: > 100 µM (inactive)
GI50 [43]: 37.2 µM (inactive)
GI50 [44]: 77.6 µM (inactive)
GI50 [58]: 80.5 µM (inactive)
GI50 [45]: 31 µM (inactive)
GI50 [46]: 35.4 µM (inactive)
GI50 [47]: 18.8 µM (inactive)
GI50 [48]: 2.58 µM (inactive)
GI50 [49]: 19.9 µM (inactive)
GI50 [50]: 32.5 µM (inactive)
GI50 [51]: > 100 µM (inactive)
GI50 [52]: 40.7 µM (inactive)
GI50 [53]: 33.3 µM (inactive)
GI50 [54]: 25.2 µM (inactive)
GI50 [55]: 47.5 µM (inactive)
